Columns and labels:
Experiment in all cases: KiNativ kinome profiling in PANC-1 lysate
Format in all cases: binding
PKCd = target: T1, PKCd (Homo sapiens, UniProt Q05655)
T1 construct: endogenous in cells; host or cells: PANC-1 cell lysate
Outline: (§1)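 PANC-1 lysates were incubated with 5 μM inhibitor or DMSO, then labeled with a desthiobiotin-ATP acyl-phosphate probe that biotinylates conserved kinase lysines. Tryptic peptides were streptavidin-enriched and quantified by LC-MS/MS, reported as % change in MS signal from duplicate treated and duplicate control samples.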

NEK6, NEK7 = conditions: 5 µM; Lys2; DIKPANVFITATGVVK
Outline: as §1

MELK = target: T2, MELK (Homo sapiens, UniProt Q14680); conditions: Lys2
T2 construct: endogenous in cells; host or cells: PANC-1
Outline: as §1

PIK3CA = target: T3, PIK3CA (Homo sapiens, UniProt P42336); conditions: ATP
T3 construct: endogenous in cells; host or cells: PANC-1 cell lysate
Outline: as §1

HCK = target: T4, HCK (Homo sapiens, UniProt P08631)
T4 construct: we opted to conduct a kinome screen (KiNativ) in PANC-1 cell lysates; endogenous in cells; host or cells: PANC-1 cell lysate
T4 sequence (P08631 whole entry): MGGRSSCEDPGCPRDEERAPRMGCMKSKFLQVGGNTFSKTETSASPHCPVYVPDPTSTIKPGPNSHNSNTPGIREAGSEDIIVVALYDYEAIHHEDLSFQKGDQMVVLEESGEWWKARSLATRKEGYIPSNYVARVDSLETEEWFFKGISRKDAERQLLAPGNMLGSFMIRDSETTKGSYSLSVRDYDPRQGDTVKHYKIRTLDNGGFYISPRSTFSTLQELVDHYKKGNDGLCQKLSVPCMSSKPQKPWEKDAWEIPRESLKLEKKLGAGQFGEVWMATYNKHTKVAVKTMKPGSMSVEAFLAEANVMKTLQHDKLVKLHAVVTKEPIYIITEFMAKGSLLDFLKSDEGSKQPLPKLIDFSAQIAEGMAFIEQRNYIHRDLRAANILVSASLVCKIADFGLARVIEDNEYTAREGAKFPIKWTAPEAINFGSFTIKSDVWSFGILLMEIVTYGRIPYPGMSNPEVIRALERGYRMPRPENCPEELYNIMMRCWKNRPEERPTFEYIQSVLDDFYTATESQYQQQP
Outline: as §1

PIK3CB = target: T5, PIK3CB (Homo sapiens, UniProt P42338); conditions: ATP
T5 construct: endogenous in cells; host or cells: PANC-1 cell lysate
T5 sequence (P42338 whole entry): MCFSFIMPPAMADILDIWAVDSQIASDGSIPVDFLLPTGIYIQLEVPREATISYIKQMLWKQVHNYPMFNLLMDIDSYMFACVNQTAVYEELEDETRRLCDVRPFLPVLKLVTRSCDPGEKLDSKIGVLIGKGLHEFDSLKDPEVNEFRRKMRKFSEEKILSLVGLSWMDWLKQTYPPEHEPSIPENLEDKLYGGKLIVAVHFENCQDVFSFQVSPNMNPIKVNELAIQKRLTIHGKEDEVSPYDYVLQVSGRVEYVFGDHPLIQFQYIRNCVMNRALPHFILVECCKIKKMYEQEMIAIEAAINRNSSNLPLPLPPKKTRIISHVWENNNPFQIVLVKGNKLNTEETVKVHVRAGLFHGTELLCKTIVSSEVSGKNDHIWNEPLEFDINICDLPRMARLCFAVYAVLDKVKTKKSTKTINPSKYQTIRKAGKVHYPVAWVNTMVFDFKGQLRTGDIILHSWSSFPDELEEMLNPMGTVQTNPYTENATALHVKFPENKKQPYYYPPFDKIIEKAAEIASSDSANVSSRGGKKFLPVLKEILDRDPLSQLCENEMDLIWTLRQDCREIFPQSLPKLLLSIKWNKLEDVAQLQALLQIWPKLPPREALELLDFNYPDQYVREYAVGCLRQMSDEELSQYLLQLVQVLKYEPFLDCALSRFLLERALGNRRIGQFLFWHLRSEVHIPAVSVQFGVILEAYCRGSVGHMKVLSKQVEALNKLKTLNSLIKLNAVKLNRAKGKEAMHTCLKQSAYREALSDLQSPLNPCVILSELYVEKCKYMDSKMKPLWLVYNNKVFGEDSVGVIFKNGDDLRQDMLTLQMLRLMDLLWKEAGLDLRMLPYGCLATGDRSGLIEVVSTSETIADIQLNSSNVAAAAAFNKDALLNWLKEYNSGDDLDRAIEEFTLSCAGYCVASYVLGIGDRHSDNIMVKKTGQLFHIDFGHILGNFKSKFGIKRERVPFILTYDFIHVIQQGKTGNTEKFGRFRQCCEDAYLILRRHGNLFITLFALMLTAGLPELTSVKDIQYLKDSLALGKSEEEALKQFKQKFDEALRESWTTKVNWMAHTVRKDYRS
T5 sequence (P27986 whole entry partner): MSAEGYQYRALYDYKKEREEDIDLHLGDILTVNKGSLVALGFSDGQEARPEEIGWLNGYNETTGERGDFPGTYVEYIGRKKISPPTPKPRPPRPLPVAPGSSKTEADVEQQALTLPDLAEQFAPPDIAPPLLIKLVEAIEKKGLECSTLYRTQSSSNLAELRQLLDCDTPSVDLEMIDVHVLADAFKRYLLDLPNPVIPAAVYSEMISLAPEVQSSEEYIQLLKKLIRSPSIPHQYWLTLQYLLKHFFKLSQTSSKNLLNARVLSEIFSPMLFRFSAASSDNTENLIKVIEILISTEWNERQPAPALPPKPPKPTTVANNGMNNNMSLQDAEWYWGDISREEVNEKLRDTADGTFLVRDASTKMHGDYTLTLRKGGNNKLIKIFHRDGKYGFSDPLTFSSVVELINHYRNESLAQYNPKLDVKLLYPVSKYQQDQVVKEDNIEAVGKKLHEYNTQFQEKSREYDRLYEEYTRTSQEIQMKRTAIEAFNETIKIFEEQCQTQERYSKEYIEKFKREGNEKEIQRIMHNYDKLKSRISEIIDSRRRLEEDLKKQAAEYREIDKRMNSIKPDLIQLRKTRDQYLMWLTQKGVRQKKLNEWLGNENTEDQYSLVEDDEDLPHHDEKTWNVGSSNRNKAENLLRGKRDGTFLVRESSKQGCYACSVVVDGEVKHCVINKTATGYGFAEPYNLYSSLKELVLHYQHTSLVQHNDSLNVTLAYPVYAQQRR
Outline: as §1

PKD1, PKD2 = conditions: 5 µM; Lys2; NIVHCDLKPENVLLASADPFPQVK
Outline: as §1

ULK3 = target: T6, ULK3 (Homo sapiens, UniProt Q6PHR2); conditions: Lys1
T6 construct: endogenous in cells; host or cells: PANC-1 cell lysate
T6 sequence (Q6PHR2 whole entry): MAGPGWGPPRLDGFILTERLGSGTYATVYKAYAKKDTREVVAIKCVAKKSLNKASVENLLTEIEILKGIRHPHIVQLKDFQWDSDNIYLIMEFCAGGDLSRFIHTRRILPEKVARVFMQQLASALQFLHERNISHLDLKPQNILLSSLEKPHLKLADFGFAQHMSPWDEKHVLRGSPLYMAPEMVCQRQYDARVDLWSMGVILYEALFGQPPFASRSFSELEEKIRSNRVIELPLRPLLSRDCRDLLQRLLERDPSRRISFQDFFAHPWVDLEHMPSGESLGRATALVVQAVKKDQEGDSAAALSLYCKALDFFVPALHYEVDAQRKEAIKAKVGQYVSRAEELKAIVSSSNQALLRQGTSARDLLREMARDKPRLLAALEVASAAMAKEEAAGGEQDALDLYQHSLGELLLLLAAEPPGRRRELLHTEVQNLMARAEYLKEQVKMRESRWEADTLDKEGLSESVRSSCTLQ
Outline: as §1

FRK = target: T7, FRK (Homo sapiens, UniProt P42685); conditions: ATP Loop
T7 construct: endogenous in cells; host or cells: PANC-1 lysate
Outline: as §1

MAST3 = target: T8, MAST3 (Homo sapiens, UniProt O60307); conditions: Lys2
T8 construct: endogenous in cells; host or cells: PANC-1
T8 sequence (O60307 whole entry): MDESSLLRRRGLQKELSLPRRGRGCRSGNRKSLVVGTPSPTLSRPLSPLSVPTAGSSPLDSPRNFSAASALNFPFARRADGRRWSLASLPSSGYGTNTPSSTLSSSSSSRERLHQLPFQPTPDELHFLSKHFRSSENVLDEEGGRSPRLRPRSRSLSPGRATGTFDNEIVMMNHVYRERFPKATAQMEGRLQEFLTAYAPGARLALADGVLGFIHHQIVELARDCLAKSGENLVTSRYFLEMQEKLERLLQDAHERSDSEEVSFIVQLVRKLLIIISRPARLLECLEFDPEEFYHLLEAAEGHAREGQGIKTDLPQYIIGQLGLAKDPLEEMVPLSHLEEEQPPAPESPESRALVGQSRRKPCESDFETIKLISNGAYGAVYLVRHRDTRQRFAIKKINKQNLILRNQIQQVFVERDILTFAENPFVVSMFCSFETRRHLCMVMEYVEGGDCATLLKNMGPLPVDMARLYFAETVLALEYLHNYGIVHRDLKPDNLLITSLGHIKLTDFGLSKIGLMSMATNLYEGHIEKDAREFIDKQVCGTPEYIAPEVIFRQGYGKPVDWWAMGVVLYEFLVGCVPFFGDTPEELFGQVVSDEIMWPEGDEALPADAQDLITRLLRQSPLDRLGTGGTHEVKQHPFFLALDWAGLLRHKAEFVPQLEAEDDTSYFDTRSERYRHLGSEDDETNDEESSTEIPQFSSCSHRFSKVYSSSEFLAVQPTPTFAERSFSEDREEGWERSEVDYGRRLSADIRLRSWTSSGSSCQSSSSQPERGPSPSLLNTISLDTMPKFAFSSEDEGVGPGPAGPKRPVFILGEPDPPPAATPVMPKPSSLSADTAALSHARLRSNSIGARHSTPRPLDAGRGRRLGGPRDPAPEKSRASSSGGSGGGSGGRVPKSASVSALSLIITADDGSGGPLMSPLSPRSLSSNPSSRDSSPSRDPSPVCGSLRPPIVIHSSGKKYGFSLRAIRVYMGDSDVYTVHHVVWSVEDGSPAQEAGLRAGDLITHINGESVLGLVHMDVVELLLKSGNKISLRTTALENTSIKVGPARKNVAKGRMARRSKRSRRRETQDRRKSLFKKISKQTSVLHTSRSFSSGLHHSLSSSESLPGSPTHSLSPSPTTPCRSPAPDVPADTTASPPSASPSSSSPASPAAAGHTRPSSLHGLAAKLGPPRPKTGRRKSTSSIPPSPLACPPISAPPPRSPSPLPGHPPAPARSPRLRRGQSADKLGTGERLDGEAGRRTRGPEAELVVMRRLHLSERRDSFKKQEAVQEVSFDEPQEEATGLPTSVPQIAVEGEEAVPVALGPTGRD
Outline: as §1

PKD3 = target: T9, PKD3 (Homo sapiens, UniProt O94806)
T9 construct: endogenous in cells; host or cells: PANC-1 cell lysate
T9 sequence (O94806 1-890): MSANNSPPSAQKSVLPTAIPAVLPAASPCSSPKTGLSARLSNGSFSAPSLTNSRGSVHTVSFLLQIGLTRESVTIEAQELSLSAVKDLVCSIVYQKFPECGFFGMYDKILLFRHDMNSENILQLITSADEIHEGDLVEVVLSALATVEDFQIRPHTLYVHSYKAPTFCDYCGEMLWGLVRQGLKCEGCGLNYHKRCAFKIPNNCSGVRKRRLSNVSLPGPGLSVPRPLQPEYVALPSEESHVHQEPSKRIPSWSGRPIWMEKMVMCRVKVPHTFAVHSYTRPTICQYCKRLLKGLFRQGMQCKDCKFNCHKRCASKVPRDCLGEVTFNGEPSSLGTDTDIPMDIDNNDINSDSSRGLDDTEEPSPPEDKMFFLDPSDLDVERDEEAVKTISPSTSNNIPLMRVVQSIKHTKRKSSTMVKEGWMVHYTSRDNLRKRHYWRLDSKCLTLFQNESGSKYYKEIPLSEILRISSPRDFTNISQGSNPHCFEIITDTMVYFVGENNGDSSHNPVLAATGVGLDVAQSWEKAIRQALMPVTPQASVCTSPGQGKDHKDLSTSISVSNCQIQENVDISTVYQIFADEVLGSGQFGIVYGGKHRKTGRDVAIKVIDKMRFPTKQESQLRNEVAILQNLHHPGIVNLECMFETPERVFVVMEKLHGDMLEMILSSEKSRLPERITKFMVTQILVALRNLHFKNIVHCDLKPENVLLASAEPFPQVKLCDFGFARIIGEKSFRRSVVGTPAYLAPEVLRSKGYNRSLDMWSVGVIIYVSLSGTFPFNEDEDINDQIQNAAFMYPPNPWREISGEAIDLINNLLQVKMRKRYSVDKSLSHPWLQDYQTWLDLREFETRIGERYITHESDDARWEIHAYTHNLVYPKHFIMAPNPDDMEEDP
Outline: as §1

AKT1 = target: T10, AKT1 (Homo sapiens, UniProt P31749); conditions: ATP Loop
T10 construct: endogenous in cells; host or cells: PANC-1 cell lysate
Outline: as §1

MPSK1 = target: T11, MPSK1 (Homo sapiens, UniProt O75716); conditions: Lys2
T11 construct: endogenous in cells; host or cells: PANC-1
Outline: as §1

MARK2, MARK3 = conditions: 5 µM; Lys2; DLKAENLLLDADMNIK
Outline: as §1

CDK5 = target: T12, CDK5 (Homo sapiens, UniProt Q00535)
T12 construct: endogenous in cells; host or cells: PANC-1 cell lysate
T12 sequence (Q00535 whole entry): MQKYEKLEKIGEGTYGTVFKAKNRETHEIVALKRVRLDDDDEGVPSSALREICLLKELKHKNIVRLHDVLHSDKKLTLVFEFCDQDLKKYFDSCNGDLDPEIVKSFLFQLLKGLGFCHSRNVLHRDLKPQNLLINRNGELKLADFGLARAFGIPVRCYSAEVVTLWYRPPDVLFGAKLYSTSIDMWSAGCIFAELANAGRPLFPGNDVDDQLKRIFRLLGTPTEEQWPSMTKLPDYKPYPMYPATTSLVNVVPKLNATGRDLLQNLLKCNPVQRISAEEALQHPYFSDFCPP
Outline: as §1

T1 sequence (Q05655 whole entry): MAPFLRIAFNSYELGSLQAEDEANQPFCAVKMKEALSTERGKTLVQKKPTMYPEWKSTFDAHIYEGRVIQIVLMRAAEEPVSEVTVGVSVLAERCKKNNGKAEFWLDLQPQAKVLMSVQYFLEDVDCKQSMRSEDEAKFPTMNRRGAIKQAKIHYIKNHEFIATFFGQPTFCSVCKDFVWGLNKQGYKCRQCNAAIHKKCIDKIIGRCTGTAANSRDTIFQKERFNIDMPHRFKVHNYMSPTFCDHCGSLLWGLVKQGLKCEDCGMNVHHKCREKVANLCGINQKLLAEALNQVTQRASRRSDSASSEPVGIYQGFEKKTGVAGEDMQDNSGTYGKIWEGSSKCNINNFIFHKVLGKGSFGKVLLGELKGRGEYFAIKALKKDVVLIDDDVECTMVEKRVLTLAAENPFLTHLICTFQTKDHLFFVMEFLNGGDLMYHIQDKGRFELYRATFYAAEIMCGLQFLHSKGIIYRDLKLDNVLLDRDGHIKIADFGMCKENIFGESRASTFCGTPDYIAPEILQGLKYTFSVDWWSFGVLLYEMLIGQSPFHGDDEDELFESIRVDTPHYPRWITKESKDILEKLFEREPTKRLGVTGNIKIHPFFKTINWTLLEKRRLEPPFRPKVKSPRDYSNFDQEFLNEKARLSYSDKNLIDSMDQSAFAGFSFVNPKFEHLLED

Compound: Cn1cc(-c2cnc3ccc(NC(=O)Nc4ccc(F)c(C(F)(F)F)c4)cc3n2)cn1 [51-106, 1-(4-Fluoro-3-(trifluoromethyl)phenyl)-3-(3-(1-methyl-1H-pyrazol-4-yl)quinoxalin-6-yl)urea]
- inhibition at 5 µM (PKCd; Lys2, DLKLDNVLLDR): 0.4%
- inhibition at 5 µM (PKCd; Other, KPTMYPEWK): ≤ 0%
- % Inhibition (NEK6, NEK7): 24.8%
- inhibition at 5 µM (MELK): ≤ 0%
- inhibition at 5 µM (PIK3CA): ≤ 0%
- % Inhibition (HCK; 5 µM, ATP Loop, EGAKFPIKWTAPEAINFGSFTIK): NB (NB = No Binding (≤ 0))
- inhibition at 5 µM (HCK; Lys1, […]): ≤ 0%
- inhibition at 5 µM (PIK3CB; VFGEDSVGVIFKNGDDLR): 1.7%
- inhibition at 5 µM (PIK3CB; VFGEDSVGVIFKNGDDLRQDMLTLQMLR): 31.4%
- % Inhibition (PKD1, PKD2): NB (NB = No Binding (≤ 0))
- inhibition at 5 µM (ULK3): ≤ 0%
- inhibition at 5 µM (FRK): ≤ 0%
- inhibition at 5 µM (MAST3): ≤ 0%
- % Inhibition (PKD3; 5 µM, Lys1, DVAIKVIDK): 27.0%
- inhibition at 5 µM (PKD3; Lys1, DVAIKVIDK): 27%
- inhibition at 5 µM (PKD3; Lys2, NIVHCDLKPENVLLASAEPFPQVK): ≤ 0%
- inhibition at 5 µM (AKT1): ≤ 0%
- inhibition at 5 µM (MPSK1): ≤ 0%
- % Inhibition (MARK2, MARK3): 11.3%
- inhibition at 5 µM (CDK5; Lys1, NRETHEIVALKR): ≤ 0%
- inhibition at 5 µM (CDK5; Lys2, DLKPQNLLINR): 6.5%

— paper PMC12073402, “A Selective MAP3K1 Inhibitor Facilitates Discovery of NPM1 as a Member of the Network” (Molecules, 2025)
